Data as given in US9518065B2, “IRAK inhibitors and uses thereof” (NIMBUS IRIS, INC., priority 2013, dated 2016).
Like-named read-outs stand apart in the source and are kept apart here.

Experiments:
[1] = system: cytokine production in whole blood; assay: In vitro LPS/R848-induced cytokine production assay in whole blood; format: cell-based, human; conditions: read-out: TNF-α production IC50
Description: (§1) Compounds of the present invention were also studied in in vitro LPS/R848/CpG-induced cytokine production assays. Exemplary protocols follow.
(§2) Whole Blood (LPS): 13 mL of whole blood solution was prepared by combining whole blood in no serum medium with a ratio of 1:1. Cells were seeded in a 96-well plate with 130 ul/well of the cell suspension according to the plate map. 9 ul of 30 mM compound solution was added into the wells in the assigned rows, then serial solutions with 4× dilutions were made. That is, add 9 uL of 100% DMSO into each of the rest wells and take 3 uL of compound solution from the one-step higher concentration solution and mix well with the DMSO. For the second compound master plate, 196 uL of the growth medium (no serum media) were added into each of the wells and 4 uL of the compound solution from the first compound master plate was added and mixed with the media. Cells were treated for 0.5 h by adding 20 uL of the compound and the control solutions prepared in the second master plate to each well according to the plate map. Cells were stimulated with a) 0.1 ug/mL of LPS overnight for whole blood assay; b) 0.01 ug/mL of LPS overnight for hWBC assay. Plates were sealed with sealing films and the plates were centrifuged at 3000 rpm at 4 degrees C. for 5 min. The supernatants were transferred, and 100 ul of working Capture antibody solution was added to each well. The plates were sealed and incubated overnight at RT. IL-6, IFN-α or TNF-α detection antibody labeled with biotin: Added 100 uL of the Detection Antibody solution to each well. Covered the plate and incubated for 2 h at RT. Added 100 uL of Streptavidin-HRP solution to each well. Covered the plate and incubate for 20 min at RT in dark. Added 100 uL of Substrate Solution to each well. Incubated for 20 min at RT in dark. Added 50 uL of Stop Solution to each well. Gently tapped the plate to ensure thorough mixing. Determined the optical density of each well immediately, using a microplate reader set to 450 nm and also read at 540 nm or 570 nm for correction if wavelength correction is not available.

[2] = system: cytokine production in human white blood cells (hWBC); assay: In vitro LPS/R848/CpG-induced cytokine production assay in hWBC; format: cell-based; conditions: WBC
Description: as §1, §2

[3] = Homo sapiens, LPS 0.1 uM, overnight
[4] = Homo sapiens, CPG 0.5 uM, overnight, read-out: IFN-α production IC50
[5] = Homo sapiens, LPS 0.1 uM, overnight, read-out: TNF-α production IC50
[6] = Homo sapiens, R848 1 uM, 5 h, read-out: TNF-α production IC50

| Compound | IC50 ([1]; LPS 0.1 uM, overnight) [nM] | IC50 ([1]; R848 1 uM, 20 h) [nM] | IC50 ([2]; CPG 0.5 uM, overnight, read-out: IFN-α production IC50) [nM] | IC50 ([2]; LPS 0.1 uM, overnight, read-out: TNF-α production IC50) [nM] | IC50 ([2]; R848 1 uM, 5 h, read-out: TNF-α production IC50) [nM] | IC50 [1, 3] [nM] | IC50 ([1]; Homo sapiens, R848 1 uM, 20 h) [nM] | IC50 [2, 4] [nM] | IC50 [2, 5] [nM] | IC50 [2, 6] [nM] |
| --- | --- | --- | --- | --- | --- | --- | --- | --- | --- | --- |
| 2-methyl-N5-(1-methyl-1H-pyrazol-4-yl)-N7-((1r,4r)-4-morpholinocyclohexyl)thiazolo[5,4-d]pyrimidine-5,7-diamine [Compound I-24] | ≥ 5000 | 1000 to 5000 | ≤ 250 | ≤ 250 | ≤ 250 |  |  |  |  |  |
| CCc1nc2c(N[C@H]3CC[C@H](N4CCOCC4)CC3)nc(Nc3cnn(C)c3)nc2s1 [Compound I-7, 2-ethyl-N5-(1-methyl-1H-pyrazol-4-yl)-N7-((1r,4r)-4-morpholinocyclohexyl)-thiazolo[5,4-d]pyrimidine-5,7-diamine] |  |  |  |  |  | ≥ 5000 | 1000 to 5000 | ≤ 250 | 250 to 1000 | 250 to 1000 |
| CCc1nc2c(N[C@H]3CC[C@H](N4CCOCC4)CC3)nc(Nc3cnn(C4CCOCC4)c3)nc2s1 [Compound I-9, 2-ethyl-5-N-[1-(oxan-4-yl)-1H-pyrazol-4-yl]-7-N—[trans-4-(morpholin-4-yl)cyclohexyl]-[1,3]thiazolo[5,4-d]pyrimidine-5,7-diamine] |  |  |  |  |  | 1000 to 5000 | 250 to 1000 | ≤ 250 | ≤ 250 | ≤ 250 |
